Test results as given in patent EP1477171A1, “Intestinal mineral absorption capacity improver” (Kao Corporation, priority 2003, dated 2004).

Columns and labels:
[1] = pH of a 2 mass% aqueous solution; type: physicochemical
[2] = tested on: SD rats; experiment: 45Ca level in blood plasma after oral 45Ca calcium chloride in rats fed the test diet for 10 days (intestinal calcium absorption capacity); type: in vivo; conditions: test diet (1.88 mass% in feed, 15 g/day, 10 days) vs control diet; 24 h fast; plasma 30 minutes, 1 hour and 2 hours after oral ^45Ca calcium chloride; Scheffe method, significant level less than 1%
Method: Rats (8-week-old, male, SD rats), 10 rats consisting of one group, were each fed with 15 g/day of a control diet or a glucose 1-phosphate sodium salt diet as shown in Table 1 for 10 days. As the glucose 1-phosphate sodium salt, product of Solchem (Italy) was employed and the feed was adjusted to have a calcium concentration of 0.2 mass% and a P concentration of 0.4 mass%. The rats were allowed to take distilled water ad libitum.
After the rats were fasted for 24 hours, they were orally administered with 1.5 mL (containing ^45CalµCi), per average weight, of a 1 mg/mL calcium chloride solution containing ^45Ca singly. The blood plasma was obtained from about 0.5 mL of the blood collected from their carotid artery 30 minutes, 1 hour and 2 hours after administration. The ^45Ca level in 100 µL of the blood plasma was measured by a liquid scintillation counter.
A change in the ^45Ca level in 100 µL of the blood plasma separated from the […] 30 minutes, 1 hour and 2 hours after the administration of a ^45Ca-containing calcium chloride solution was statically analyzed by the Scheffe method. […]

[3] = tested on: SD rats; experiment: duration of the intestinal calcium absorption capacity improving effect after feeding is terminated (45Ca level in plasma); type: in vivo; conditions: test diet 10 days, then control diet; for 3 days after termination; relative to the control group
Source text: As in Example 1, 15 g/day of a control diet and a test diet as shown in Table 1 were fed to groups of rats (8-week-old, male, SD rats), each group consisting of 8 rats, for 10 days, respectively. The rat groups fed with the test diet were divided into three groups and as the feed after 10 days, the control diet was fed to each group and feeding of the glucose 1-phosphate sodium salt was terminated. The termination period was 1 day, 3 days and 7 days. The ^45Ca level in the blood plasma after completion of the feeding period was measured in accordance with the method of Example 1.

Compound	pH of a 2 mass% aqueous solution [1]	^45Ca level in the blood plasma [2]	^45Ca level in the plasma after feeding was terminated [3]
O=P(O)(O)OC1O[C@H](CO)[C@@H](O)[C@H](O)[C@H]1O (stereo partly shown) [Glucose-1-phosphoric acid, reference compound]	1.5		
glucose 1-phosphate sodium salt	about 8.0	statistically significant increase	significant increase
